Structures can show the parent of a compound that is named as a salt.
Columns and labels:
[1] = target: T1, horse liver alcohol dehydrogenase (HLADH) (Equus caballus, UniProt P00327); assay: HLADH enzymatic chiral reduction of ketones with biomimic co-factor regeneration; assay type: biochemical
T1 construct: purchased Sigma
Protocol: FIG. 7 presents structures of ketone substrates 12-15 used for biomimic chiral synthesis of corresponding alcohols. Conversion of the substrates 12-15 to their corresponding alcohols are expressed in % yield, and TOF in d^−1 and S-enantiomer excess (ee) are also shown for each conversion. Corresponding values obtained with NAD^+ are given in parenthesis. The S-enantiomeric excess (ee) was determined by GLC with a modified β-cyclodextrin capillary column.
[Cp*Rh(bpy)(H2O)]OTf2 (1.9 mg, 2.61×10^−3 mmol), sodium formate (17.8 mg, 261.69×10^−3 mmol), NAD^+ (8.1 mg, 11.23×10^−3 mmol) and HLADH (10 units) were placed in a 10 mL Schlenk flask, and Schlenk techniques were followed to deoxygenate the solid mixture.
Under positive argon pressure, 5 mL of potassium phosphate buffer (100 mM, pH=7.02, deoxygenated) and carbonyl substrate (83.58×10^−3 mmol, deoxygenated) were added via syringe. The reaction flask was immediately securely capped with a glass-stopper and shaken with a shaker in 30° C. water-bath. The reaction was monitored by gas chromatography (GC), equipped with a β-cyclodextrin column (Supelco, β-DEX-225), and the products were identified by comparing the retention time with the corresponding authentic chiral samples and were confirmed by GC-MS. The enantiomeric excess of the products was determined directly by their relative area in the chromatogram. The progress of the reaction was obtained by mixing the reaction aliquot with an internal standard (cyclohexanol in phosphate buffer), and then calibrating the measured relative area in the chromatogram with their corresponding response factors. The reaction was monitored for 24 hours.
The same procedure as described in section A was followed, except that NAD^+ was substituted with any one of the biomimic compounds of the invention.

[2] = UV-vis kinetics of the regioselective reduction with rhodium catalyst precursor (2) and formate; conditions: for kcat rate constant for catalysis / r1 initial rate: [2] 2.725 × 10^−5 M, 299° K
From the text: The kinetics of the regioselective reduction reactions were further studied utilizing UV-vis techniques with the two biomimic compounds (1) and (6) and the results were compared to NAD^+ itself. Experimental conditions are described in Example 9.
The effect of the initial rate (ri) at low conversions to the 1,4-dihydro product (˜10%) was ascertained by varying the amount of substrate precatalyst (2) and sodium formate concentrations.
The initial rates (ri) of formation of compound (3) were obtained from plots of concentration (absorbance at 354 nm/ε) versus time at low conversions (˜10%). The values of kcat were calculated at 299° K.
Rates were obtained via UV-vis techniques and are an average of two runs.
This example describes studies producing kinetic and thermodynamic data for 1-benzylnicotinamide triflate (1a) performed in THF/H2O, 1:1, β-nicotinamide -5′-ribose methyl phosphate (6) H2O, pH=6.5, and NAD^+ performed in the regioselective reduction with [Cp*Rh(bpy)H2O)][OTf]2, 2 and in the presence of formate ion.
The kinetic experiments were carried out on a Hewlett Packard 8452A Diode Array Uv-Vis spectrophotometer, attached to a circulating water bath (VWR 1160). For experiments conducted at different temperatures, the circulating water bath, as well as the UV-vis instrument, were warmed up for at least an 1 hour before the kinic studies were initiated.
The 1-benzylnicotinamide triflate (1a) [CP*Rh(bpy)(H2O)][OTf]2 (2) and 1-benzyl-1,4 dihydronicotinamide (3) were synthesized by methods as described in Examples 2, 4 and 7. The NAD^+ and 1,4-NADH compounds were purchased from Sigma and used as received. The THF was distilled from Na and deoxygenate with N2 gas for 1 hour. Distilled water was purchased from Aldrich Chemical Co and deoxygenate prior to being used. A solution of THF/H2O (similar for 1:1 or 1:4 ratios) was used for all the kinetic experiments performed for compounds of 1-benzylnicotinamide type, unless otherwise specified. A stock solution of biomimic (1a) (0.018 M), 2 (6.23×10^−3 M), and sodium formate (0.25 M) were made for the kinetic experiments in THF/H2O (1:1).
A solution of 1-benzylnicotinamide triflate (1a), (4.29×10^−3 M) and sodium formate (0.0539) was made in a volumetric flask (10 mL) under N2 in a THF/H2O (1:1) mixture. The different concentration of biomimic (1a) and sodium formate used for the kinetic experiments are reported above.
A 3.0 mL aliquot of this solution was transferred to a thermostated UV-vis cell by using an air-free syringe, which was also purged with N2 gas. The sample was then brought to the desired temperature for 30-60 min in the UV-vis spectrophotometer thermostated cell holder. Then, 23 μL of a 6.23×10^−3 M stock solution of [CP*Rh(bpy)(H2O)^2+ (2), was added-by syringe under a positive N2 pressure, quickly mixed with the solution, and the absorbance increase at 354 nm was immediately recorded. The experiment was carried out for 2 hours and the formation of the product, 1-benzyl-1,4-dihydronicotinamide, (3) was followed, with the change in absorbance being recorded every 90 seconds. Some kinetic experiments were carried out until all the starting material was converted to product. The induced volume change was taken into account for the calculation of the turnover frequency (TOF).
The kinetic experiments for the β-nicotinamide-5′-ribose methyl phosphate (6) and natural NAD^+ were performed using the same general procedure described above. These kinetic experiments were carried out in H2O and the concentration of β-nicotinamide-5′-ribose methyl phosphate (6) or NAD^+, sodium formate, and [Cp*Rh(bpy)(H2O)]^2+ (2), were in the order of 1.50×10^−3, 0.0186 M, and 1.42×10^−5 M, respectively. The λmax for the β-nicotinamide-5′-ribose methyl phosphate, (6), and natural NAD^+ was 336 nm. In all the initial rate plots, time =0 s was removed from the plots of Concentration versus Time. The standard deviation of the ri were calculated from 2σ values.

[3] = stability observations (light, air, solvent); assay type: physicochemical
[4] = [1a] 1.07 × 10^−3 M, HCO2Na 0.03266 M, 1:1 H2O/THF
[5] = [1a] 1.61 × 10^−3 M, HCO2Na 0.03260 M, 1:1 H2O/THF
[6] = [1a] 2.68 × 10^−3 M, HCO2Na 0.03266 M, 1:1 H2O/THF
[7] = [1a] 2.68 × 10^−4 M, HCO2Na 0.03266 M, 1:1 H2O/THF
[8] = [1a] 5.37 × 10^−4 M, HCO2Na 0.03259 M, 1:1 H2O/THF

T1 sequence (P00327 2-375 limits assumed): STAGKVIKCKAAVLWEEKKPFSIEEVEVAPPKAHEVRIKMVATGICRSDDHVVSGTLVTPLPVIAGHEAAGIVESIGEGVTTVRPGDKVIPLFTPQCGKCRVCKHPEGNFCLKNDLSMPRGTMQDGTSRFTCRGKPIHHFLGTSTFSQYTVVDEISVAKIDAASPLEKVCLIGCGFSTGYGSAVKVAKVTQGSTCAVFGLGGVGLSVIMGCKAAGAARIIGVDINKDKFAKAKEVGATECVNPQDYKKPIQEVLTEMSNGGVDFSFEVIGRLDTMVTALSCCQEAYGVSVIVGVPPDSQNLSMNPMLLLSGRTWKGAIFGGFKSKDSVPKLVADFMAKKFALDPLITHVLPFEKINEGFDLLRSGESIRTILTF

Compound: NC(=O)c1ccc[n+](Cc2ccccc2)c1 [Compound 1a, 1-Benzylnicotinamide, Triflate Salt]
- recognition by HLADH as hydride catalyst of the chiral conversion [1]: recognizes
- turnover frequency of chiral ketone reduction ([1]; ketone (12) reduced by HLADH with co-factor regeneration, 24 hours): ~30 day⁻¹
- TOF ([2]; 294° K, 1:1 H2O/THF, substrate 4.29 × 10^−3 M): 2 h⁻¹
- ri initial rate ([2]; 294° K, 1:1 H2O/THF, substrate 4.29 × 10^−3 M, HCO2Na 5.39 × 10^−2 M, (2) 4.33 × 10^−5 M): 1.23e-08 M/s
- TOF ([2]; H2O/THF 1:1, 1a 4.29 × 10^−3 M): 2 h⁻¹
- ri initial rate ([2]; H2O/THF 1:1, 1a 4.29 × 10^−3 M, HCO2Na 5.39 × 10^−2 M, (2) 4.33 × 10^−5 M): 1.23e-08 M/s
- TOF ([2]; H2O/THF 4:1, 1a 1.68 × 10^−3 M): 10 h⁻¹
- ri initial rate ([2]; H2O/THF 4:1, 1a 1.68 × 10^−3 M, HCO2Na 1.79 × 10^−3 M, (2) 1.71 × 10^−5 M): 4.31e-08 M/s
- TOF ([2]; H2O/THF 4:1, 1a 4.82 × 10^−3 M): 13 h⁻¹
- ri initial rate ([2]; H2O/THF 4:1, 1a 4.82 × 10^−3 M, HCO2Na 5.52 × 10^−2 M, (2) 4.83 × 10^−5 M): 1.75e-07 M/s
- increase in initial rate of formation of the 1,4-dihydro derivative (3a), factor ([2]; THF/H2O from 1:1 to 1:4, comparable concentrations): > 6
- kcat rate constant for catalysis [2, 4]: 12.61 M^−2s^−1
- r1 initial rate [2, 4]: 1.2e-08 M/s
- kcat rate constant for catalysis [2, 5]: 14.03 M^−2s^−1
- r1 initial rate [2, 5]: 2.01e-08 M/s
- kcat rate constant for catalysis [2, 6]: 14.38 M^−2s^−1
- r1 initial rate [2, 6]: 3.43e-08 M/s
- kcat rate constant for catalysis [2, 7]: 8.85 M^−2s^−1
- r1 initial rate [2, 7]: 2.1e-09 M/s
- kcat rate constant for catalysis [2, 8]: 13.02 M^−2s^−1
- r1 initial rate [2, 8]: 6.3e-09 M/s
- stability [3]: more stable in acqueous/organic solvent
